Where two headings read alike, the source gives them in different places.
How the values were obtained:
[1] = Boiling point; format: physicochemical; settings: for normal boiling point: trans- vs cis-isomer
Method: In addition, preferred cover gas compositions of the present invention comprise […] compounds wherein each compound present in more than an insubstantial amount has a boiling point of less than about 25° C., and even more preferably less than about 0° C. Cover gases that have boiling points close to or above room temperature (i.e. which are liquids at room temperature) typically require additional metering equipment to disperse the cover gas material in a controlled fashion onto the surface of the molten metal.

[2] = Toxicity, stated in words (no method given); settings: comparison in words, found by applicants
[3] = tested on: test subject (e.g. mice); assay: 4-hour LC-50 (concentration in air that kills 50% of test subjects, single exposure); format: in vivo; settings: single 4-hour exposure
Method: Preferably, fluoroolefins used in the present compositions have low or no toxicity. In this regard, it is preferred that fluoroolefin components that a present in the compositions in more than an insubstantial amount have a LC-50 value of at least about 100,000 ppm, and more preferably at least about 200,000 ppm. As used herein, the term “LC-50 value” means the concentration of the fluoroolefin in air that will kill 50% of test subject (e.g. mice) when administered as a single exposure (e.g. 4 hours). […] For comparison, C2F5C(O)CF(CF3)2 (a fluoroketone cover gas marketed by Minnesota Mining and Manufacturing Co. of St. Paul, Minn., under the tradename Novec™) has a 4-hour LC-50 of about 100,000.

[4] = Mg cover gas test: magnesium pieces in quartz tube, oven heated to about 700° C. under cover gas flow, visual inspection; settings: for relative performance as cover gas: at about 0.5% by volume; for performance as cover gas: concentrations at or above about 1.5% by volume
Method: A quartz tube having a well was equipped with a metered source of cover gas and a thermocouple which was placed in the well. The well was filled with about 0.2 to 0.3 g of solid magnesium pieces. The cover gas was a mixture of air (a carrier gas) and trans-HFO-1234ze. […]
The tube containing the magnesium was placed in an oven. A flow of cover gas through the tube and over the well containing the magnesium was then established at about 1 liter/minute. The oven was then heated to about 700° C. The flow of cover gas proceeded until a surface film was formed on the magnesium or the magnesium ignited.
After the test was complete, the magnesium was removed from the oven and visually inspected to determine the quality of the cover gas.
The experiments of Examples 1-5 were repeated, except that the cover gas contained […] SF6 or HFC-134a.

[5] = background statement in words; cited from earlier work
[6] = tested on: test subject (e.g. mice); settings: single 4-hour exposure; comparison compound; cited from earlier work
[7] = cardiac sensitization tests; comparison compound; cited from earlier work
[8] = 1.5 Vol. % of F-Source in Air, about 700° C.
[9] = 4.5 Vol. % of F-Source in Air, about 700° C.

Molecule: FC=CC(F)(F)F [cis-HFO-1234ze, 1,1,1,3-tetrafluoropropene]
- normal boiling point [1]: 9 °C

Molecule: FC(F)(F)C(F)(F)F [C2F6]
- Boiling Point (° C.) ([1]; Table A): −78 °C

Molecule: F/C=C(\F)C(F)(F)F [cis-HFO-1225ye, cis-1,1,1,2,3-pentafluoropropene]
- relative toxicity between isomers [2]: relatively low degree of toxicity

Molecule: FC=CC(F)(F)F [HFO-1234ze, 1,1,1,3-tetrafluoropropene]
- 4-hour LC-50 [3]: at least 100,000 ppm

Molecule: FCC(F)(F)F [HFC-134a, 1,1,1,2-tetrafluoroethane]
- Quality of Mg Protection ([4]; 0.10 Vol. % of F-Source in Air, about 700° C.): most brown specks, protected in general
- Quality of Mg Protection ([4]; 0.60 Vol. % of F-Source in Air, about 700° C.): white coating with no brown spots
- Quality of Mg Protection [4, 8]: white coating; pieces not stuck together
- Quality of Mg Protection [4, 9]: white coating; pieces not stuck together
- relative performance as cover gas [4]: performing better than SF6
- performance as cover gas [4]: performed well
- Boiling Point (° C.) ([1]; Table A): −26 °C

Molecule: FB(F)F [boron trifluoride (BF3), boron trifluoride]
- toxicity (known) [5]: very toxic

Molecule: FN(F)F [NF3, nitrogen trifluoride]
- Boiling Point (° C.) ([1]; Table A): −121 °C
- toxicity (known) [5]: toxic and/or hazardous

Molecule: O=NF [nitrosyl fluoride]
- toxicity (known) [5]: toxic and/or hazardous

Molecule: FC(F)=CC(F)(F)F [HFO-1225zc, CF3CH═CF2]
- relative toxicity between isomers [2]: much more toxic

Molecule: O=C(C(F)(F)C(F)(F)F)C(F)(C(F)(F)F)C(F)(F)F [C2F5C(O)CF(CF3)2]
- Boiling Point (° C.) ([1]; Table A): 49 °C
- 4-hour LC-50 [6]: about 100,000 ppm
- NOAEL [7]: 10 vol. %

Molecule: F/C=C/C(F)(F)F [trans-HFO-1234ze, trans-1,3,3,3-tetrafluoropropene]
- Quality of Mg Protection ([4]; 0.09 Vol. % of F-Source in Air, about 700° C.): a few brown specks, well protected in general
- Quality of Mg Protection ([4]; 0.26 Vol. % of F-Source in Air, about 700° C.): white with dark spots, no pieces stuck together
- Quality of Mg Protection ([4]; 0.46 Vol. % of F-Source in Air, about 700° C.): white coating with no brown spots
- Quality of Mg Protection [4, 8]: white coating; pieces not stuck together
- Quality of Mg Protection [4, 9]: white coating; pieces not stuck together
- protection of magnesium (visual inspection) ([4]; Example 1: about 4.5% by volume in air, about 700° C.): well protected
- protection of magnesium (visual inspection) ([4]; Example 2: about 1.5% by volume in air): well protected
- protection of magnesium (visual inspection) ([4]; Example 3: about 0.5% by volume in air): well protected
- protection of magnesium (visual inspection) ([4]; Example 4: about 0.2% by volume in air): well protected
- protection of magnesium (visual inspection) ([4]; Example 5: about 0.1% by volume in air): protected in general
- relative performance as cover gas [4]: performing better than HFC-134a
- performance as cover gas [4]: performed well
- Boiling Point (° C.) ([1]; Table A): −18.4 °C
- normal boiling point [1]: −18.4 °C
- relative toxicity between isomers [2]: less toxic than the cis-isomer

Molecule: CC(F)F [HFC-152a, difluoroethane]
- Boiling Point (° C.) ([1]; Table A): −25 °C

Molecule: methoxy-nonafluorobutane [HFE-7100]
- Boiling Point (° C.) ([1]; Table A): 61 °C

Molecule: O=C=O [CO2, carbon dioxide]
- Boiling Point (° C.) [1]: −78 °C

Molecule: FC(F)(F)/C=C/Cl [trans-HFCO-1233zd, trans-1,1,1-trifluoro-3-chloro-propene]
- Boiling Point (° C.) ([1]; Table A): +19 °C

Molecule: C=C(F)C(F)(F)F [HFO-1234yf, 1,1,1,2-tetrafluoropropene]
- Boiling Point (° C.) ([1]; Table A): −30 °C
- 4-hour LC-50 [3]: at least 200,000 ppm

Molecule: O=S(=O)(F)F [SO2F2, sulfuryl fluoride]
- Boiling Point (° C.) ([1]; Table A): −55 °C
- toxicity (known) [5]: toxic and/or hazardous

Molecule: FS(F)(F)(F)(F)F [SF6, sulfurhexafluoride]
- Quality of Mg Protection ([4]; 0.11 Vol. % of F-Source in Air, about 700° C.): failure; Mg ignited
- Quality of Mg Protection ([4]; 0.20 Vol. % of F-Source in Air, about 700° C.): several brownish regions, very little luster,
- Quality of Mg Protection ([4]; 0.43 Vol. % of F-Source in Air, about 700° C.): coating less white; brownish regions;
- Quality of Mg Protection [4, 8]: white coating; pieces not stuck together
- Quality of Mg Protection [4, 9]: white coating; pieces not stuck together
- performance as cover gas [4]: performed well
- Boiling Point (° C.) ([1]; Table A): −82 °C
- toxicity (known) [5]: non-toxic

Molecule: FC(F)(F)/C=C\Cl [cis-HFCO-1233zd, cis-1,1,1-trifluoro-3-chloro-propene]
- Boiling Point (° C.) ([1]; Table A): +19 °C

Molecule: C=C(Cl)C(F)(F)F [HFCO-1233xf, 1,1,1-trifluoro-2-chloro-propene]
- Boiling Point (° C.) ([1]; Table A): +12 °C

Molecule: F/C=C(\F)C(F)F [cis-HFO-1234ye]
- Boiling Point (° C.) [1]: +2 °C
